The values below come from patent US4113850A, “Composition for the diagnostic visualization of neoplastic tissues” (Solco Basel AG, priority 1974, dated 1978).

The conditions of series [1]: cited from earlier work; for Ray dose for the person examined: radiopharmaceuticals used up to now.
The subject of series [2] is neoplastic tissues (tumors and metastases). The following applies: radiopharmaceuticals used up to now; cited from earlier work.
A short description of series [3]: Stability of the complexes. The series is classed as physicochemical. The following applies: in solution.
For series [4] the following is noted: in vivo, cited from earlier work.
The test system of series [5] is brain tumor. The following applies: cited from earlier work.
In series [6] the test system is brain tumor. The following applies: literature sources 1-2 of Table 2, cited from earlier work.

“And” between values parts separate entries of the source, which are not always exact repeats. Identical values can stand only once. Like-named read-outs stand apart in the source and are kept apart here.

Turning to `COC(CNC(N)=O)[CH2][203Hg][Cl]` (stereo not drawn) [^203 Hg-chlormerodrin], the “Ray dose for the person examined” value in series [1] is reported as “high ray dose”. Moreover, in series [2], the Tumor affinity result is “low and uncertain tumor affinity”.

For the compound `O=[75Se]([O-])[O-].[Na+].[Na+]` [^75 Se-sodium selenite], the “Ray dose for the person examined” value in series [1] was “high ray dose”. For the same compound, in series [2], the Tumor affinity entry was “low and uncertain tumor affinity”.

For `O=C([O-])CC(O)(CC(=O)[O-])C(=O)[O-].[67Ga+3]` [^67 Gallium citrate], the “Ray dose for the person examined” value in series [1] was “high ray dose”. Besides, the Tumor affinity entry in series [2] was “low and uncertain tumor affinity”.

As for “tin-technetium-isocitrate complex [Example 1]”, the Stability of complex result in series [3] is “stable”.

Take `[O]=[99Tc](=[O])(=[O])[O-]` [Example 99mTcO4, ^99m Tc-pertechnetate]: the “Ray dose of the critical organs: Blood” value in series [1] (Blood, hitherto used substances) is on record as 17 - 47 mrad/mCurie. Besides, the “Ray dose of the critical organs: Colon” value in series [1] (Colon, hitherto used substances) was 150 - 290 mrad/mCurie. Also, in series [1] (Stomach, hitherto used substances), the “Ray dose of the critical organs: Stomach” value is 40 - 320 mrad/mCurie. In series [1] (Thyroid, hitherto used substances), the “Ray dose of the critical organs: Thyroid” value was 100 - 270 mrad/mCurie. Also, the Concentration in organs entry was “particularly high concentrations occur in the thyroid but also in the plexus chorioideus (brain), in the salivary glands and in the gastric mucosa” in series [4] (listed as 99m Tc-pertechnetate); “concentrates above all in the thyroid” in series [4] (listed as pertechnetate). Further, the “Human external tumor brain quotient (in vivo)” value with brain tumor [5] (literature sources 1-6 of Table 1, listed as 99mTcO.sbsb.4) is 1.7 : 1 and 1.3 : 1 and 1.2 - 2.5 : 1. Moreover, the “Human internal tumor brain quotient (after autopsy or on an operation preparation)” value in the series on brain tumor [6] is 1.8 - 5.3 : 1; with brain tumor [6] (listed as 99mTcO) it was 0 - 4.3 : 1.

On to ^111 indium-citrate complex [Example 7], for which the Stability of complex result in series [3] is on record as “stable”.

Consider `COC([CH2][197Hg+])CNC(N)=O.[Cl-]` (stereo not drawn) [197Hg-Chlormerodrin, ^197 Hg-chlormerodrin], for which the “Ray dose of the critical organs: Kidney” value in series [1] (Kidney, hitherto used substances) is reported as 4370 - 19400 mrad/mCurie. For the same compound, the “Ray dose for the person examined” value in series [1] is listed as “high ray dose”. In addition, in series [2], the Tumor affinity entry was “low and uncertain tumor affinity”. Besides, the “Human external tumor brain quotient (in vivo)” value in the series with brain tumor [5] (literature sources 1-6 of Table 1) is 1.2 - 8.7 : 1 and 1.2 - 3.1 : 1.
